According to patent US5162366A, “Antioxidant composition in vivo comprising enol form δ-lactone of diketogulonic acid” (Nissan Chemical Industries, Ltd., priority 1990, dated 1992):
Entries after “also recorded” stand apart in the source; their conditions may differ.

Columns and labels:
[1] = intraperitoneal administration to female ddY mice in this test; cited from earlier work
erythrocyte membrane = experiment: Inhibition of tert-butyl hydroperoxide-induced peroxidation of erythrocyte membrane (thiobarbituric acid); type: biochemical, human; details: for amount of lipid peroxide / formation of peroxide: human red ghost, tert-butyl hydroperoxide, 37° C., 30 minutes, 535 nm (FIG. 1)
From the text: Human blood cells were subjected to hemolysis and red ghost (membrane segments containing hemoglobin) was collected by a centrifuging machine. […] The reaction product was quantitatively determined by colorimetry at 535 nm.

[2] = Oxidation of the reducing agent by tert-butyl hydroperoxide (absorption intensity); type: physicochemical; details: addition of tert-butyl hydroperoxide
ddY strain mice [3] = experiment: Reducing toxicity of Adriamycin: survival days of mice; type: in vivo, mouse (female ddY strain); details: after Adriamycin; for prolongation of survival days: conclusion; for incidence of death versus control group: vitamin E 200 mg/kg i.p. 4 times or R-345 30 mg/kg i.p. 4 times
ddY strain mice [4] = experiment: Reducing radiation injury (X rays 800 roentgen): survival days of mice; type: in vivo, mouse (female ddY strain); details: for mice survived longer than 30 days / mice survived on Day 15 / average number of survival days: X rays 800 roentgen, FIG. 3; for mice survived longer than 30 days: 20 mice, R-345 285 mg/kg i.v. and/or vitamin E 200 mg/kg i.m.; for mice survived on Day 15: R-345 285 mg/kg i.v. 3 times and/or vitamin E 200 mg/kg i.m. 3 times; for average number of survival days: survival longer than 30 days counted as 30 days, control 8.7 days
Experimental: Female ddY strain mice of 4 week age having a mean body weight of 25 g were exposed to X rays of 800 roentgen to examine the number of survival days (dose of LD50 for 30 days was 407 to 466 roentgen).
R-345 (285 mg/kg) was intravenously administered through the tail immediately before exposure to radiation, and on Days 1 and 3 (3 times in total). […] With respect to a mouse survived longer than 30 days, the number of survival days was counted as 30 days to determine the average number of survival days.
Vitamin E (200 mg/kg) was intramuscularly administered 3 days and 1 day before exposure to radiation, and immediately before the exposure (3 times in total).

liver = experiment: Reducing liver toxicity by organic halogen compounds (CCl4 :CHCl3); type: in vivo, mouse (female ddY strain); details: for TBA value (lipid peroxide) in liver: Day 1 after CCl4 :CHCl3, FIG. 4a; for calcium content in liver: over 3 days after CCl4 :CHCl3, FIG. 4b
Experimental: In liquid paraffin were dissolved 0.0025 ml of carbon tetrachloride (CCl4) and 0.0050 ml of chloroform (CHCl3) to form 0.1 ml of a solution. The solution was intraperitoneally administered to female ddY strain mice of 4 week age having a mean body weight of 25 g. With passage of day, concentration of lipid peroxide (TBA value, by thiobarbituric acid reaction), calcium concentration and a ratio of saturated fatty acids to unsaturated fatty acids (as an index of fatty liver), in liver were measured over 3 days. […] Ascorbic acid (AsA) and R-345 (4 mg each was dissolved in 0.1 ml of physiological saline, respectively) were intraperitoneally administered once a day every day from 6 hours after CCl4 :CHCl3 was administered to the day before the mice were sacrificed.

ddY strain mice [5] = experiment: Recovery from hyperglycemia in Alloxan-induced diabetes; type: in vivo, mouse (female ddY strain); details: one week after Alloxan 80 mg/kg i.v.; FIG. 5
Experimental: After Alloxan (80 mg/kg) was intravenously administered to female ddY strain mice of 4 week age showing a mean body weight of 25 g, 0.2 ml of vitamin E solution (dissolved in liquid paraffin in a concentration of 5%) was intramuscularly injected per mouse once a day from the next day and 0.2 ml of R-345 (dissolved in physiological saline in a concentration of 2 wt %) was intraperitoneally injected. In the control group, 0.2 ml of physiological saline was intraperitoneally injected per mouse. Blood sugar level was measured one week after administration of Alloxan.

Stability in water = type: physicochemical

Row | Compound | amount of lipid peroxide / formation of peroxide (erythrocyte membrane) | oxidation by tert-butyl hydroperoxide [2] | prolongation of survival days (ddY strain mice [3]) | incidence of death versus control group (ddY strain mice [3]) | mice survived longer than 30 days (ddY strain mice [4]) [mice] | mice survived on Day 15 (ddY strain mice [4]) | average number of survival days (ddY strain mice [4]) [days] | TBA value (lipid peroxide) in liver (liver) | calcium content in liver (liver) | blood sugar level (ddY strain mice [5]) | also measured
1 | COc1cccc2c1C(=O)c1c(O)c3c(c(O)c1C2=O)C[C@@](O)(C(=O)CO)C[C@@H]3O[C@H]1C[C@H](N)[C@H](O)[C@H](C)O1 [Adriamycin] |  |  |  |  |  |  |  |  |  |  | LD50 [1]: 14 mg/kg
2 | O=C1OC(CO)C(=O)C(O)=C1O (centres unmarked) [R-345, 2,3,6-trihydroxy-4-oxo-2-hexen-5-olide] | exhibited the activity of inhibiting the formation of peroxide | hardly oxidized | only a slight prolongation | a slight difference was observed | 2 | 3 out of 20 | 12.9 | almost the same as in the control group | almost recovered to normal level | somewhat higher than normal level | activity of alleviating erythrocyte membrane disturbance induced by a peroxidant, versus ascorbic acid (erythrocyte membrane; conclusion): more effective than ascorbic acid; reduction in absorption intensity at 345 nm [2]: slight; mice survived longer than 50 days (ddY strain mice [3]; i.p., 10 mice, R-345 30 mg/kg and/or vitamin E 200 mg/kg, FIG. 2): 2 mice; mice died up to about Day 20 (ddY strain mice [3]; R-345 30 mg/kg i.p. 4 times, FIG. 2b): 8 out of 10; increase in average number of survival days compared with the control group (ddY strain mice [4]; R-345 285 mg/kg i.v. 3 times): slight increase; increase in TBA value, calcium content and increase in neutral fat versus control group or vitamin E alone (liver; conclusion): reduced as compared to the control group or the group administered with vitamin E alone; decomposition in water over a long period of time (Stability in water): tends to be decomposed some or less
3 | O=C1O[C@H]([C@@H](O)CO)C(O)=C1O [ascorbic acid] | increased | immediately oxidized |  |  |  |  |  | particularly high TBA value was noted in some cases | not lowered to normal level |  | reduction in absorption intensity at 265 nm [2]: markedly reduced; TBA value (lipid peroxide) in liver (liver; listed as AsA): some were higher than in the group administered with physiological saline (control group)
4 | vitamin E | exhibited the activity of inhibiting the formation of peroxide |  | only a slight prolongation | almost the same incidence as noted with the control group | 2 | 2 out of 20 | 11.8 |  | not lowered to normal level | somewhat higher than normal level | mice survived longer than 31 days (ddY strain mice [3]; vitamin E 200 mg/kg i.p. 4 times, FIG. 2c): None; prevention of increase in TBA value (lipid peroxide level) (liver; CCl4 :CHCl3): effect of preventing increase in TBA value (lipid peroxide level) was noted; prevention of increase of calcium level (liver; CCl4 :CHCl3): not noted; prevention of increase in TBA value (lipid peroxide level) (liver; CCl4 :CHCl3, listed as VE): effective for preventing the increase in TBA value; also recorded: prevented an increase in TBA value; recovery of ratio of saturated fatty acid to unsaturated fatty acid in liver (liver; Day 2 after CCl4 :CHCl3, FIG. 4c): recovery would be slower than in the group administered with no VE; recovery to normal level of calcium content on Day 3 (liver; Day 3 after CCl4 :CHCl3, conclusion): a tendency to delay the recovery to normal level
